Measured values taken from PubChem BioAssay (NCI).
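Following 48 hours of exposure in 96-well plates, responses at five concentrations were used to interpolate endpoints linearly. At the GI50, growth is halved. Definition used: TGI = concentration required for complete inhibition of growth.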

Columns and labels:
Assay in all cases: growth of human tumour cells (NCI), 48 h
[1] = test system: NCI-H23 lung
[2] = test system: UO-31 renal
[3] = test system: SK-MEL-5 melanoma
[4] = test system: KM12 colon
[5] = test system: LOX IMVI melanoma
[6] = test system: HCC-2998 colon
[7] = test system: RPMI-8226 leukemia
[8] = test system: MALME-3M melanoma
[9] = test system: A549 NSCLC
[10] = test system: SNB-75 CNS

| SMILES | TGI [1] [µM] | TGI [2] [µM] | TGI [3] [µM] | TGI [4] [µM] | TGI [5] [µM] | TGI [6] [µM] | TGI [7] [µM] | TGI [8] [µM] | TGI [9] [µM] | TGI [10] [µM] | GI50 [1] [µM] | GI50 [2] [µM] | GI50 [3] [µM] | GI50 [4] [µM] | GI50 [5] [µM] | GI50 [6] [µM] | GI50 [7] [µM] | GI50 [8] [µM] | GI50 [9] [µM] | GI50 [10] [µM] |
| --- | --- | --- | --- | --- | --- | --- | --- | --- | --- | --- | --- | --- | --- | --- | --- | --- | --- | --- | --- | --- |
| c1ccc2nc(CCC3CCCCN3)ccc2c1 (stereo not given) | > 100 | > 100 | > 100 | > 100 | > 100 | > 100 | > 100 | > 100 | > 100 | > 100 | – | – | – | – | – | – | – | – | – | – |
| COC(=O)c1ccccc1C1CN=NC12Cc1cccc(C)c1C2=O (stereo not given) | > 100 | 83.9 | > 100 | > 100 | > 100 | > 100 | > 100 | > 100 | > 100 | > 100 | – | – | – | – | – | – | – | – | – | – |
| Nn1c(Cc2ccccc2)n[nH]c1=O | > 100 | > 100 | > 100 | > 100 | > 100 | > 100 | > 100 | > 100 | > 100 | > 100 | – | – | – | – | – | – | – | – | – | – |
| Clc1nc(Cl)c(CBr)c(Cl)n1 | 31.2 | 9.01 | 8.46 | 7.87 | 4.14 | 30.8 | 4.06 | 28.7 | 35.2 | 24.8 | – | – | – | – | – | – | – | – | – | – |
| Oc1ccc(C#CCOc2ccccc2)cc1CNCCN(Cc1ccccn1)Cc1ccccn1 | 5.51 | 2.5 | 2.84 | 2.91 | 2.79 | 3.36 | 6.2 | 3.31 | 3.47 | 4.13 | 1.83 | 1.02 | 1.49 | 1.28 | 1.25 | 1.65 | 1.53 | 1.63 | 1.33 | 1.24 |
| C#CC(O)/C=C/C(O)CCCC(O)CC#CC(O)C#CC(O)CCCC(O)/C=C/CCCC(=O)CCCCCCCCCCCCCCCC(O)C(O)C#CC(=O)O (stereo not given) | > 50 | 22.1 | > 50 | > 50 | 20.8 | > 50 | > 50 | > 50 | > 50 | > 50 | – | – | – | – | – | – | – | – | – | – |
| S=C(Nc1ccccn1)Nc1ccccc1Cl | > 100 | > 100 | > 100 | > 83.4 | > 100 | > 100 | > 100 | > 79.5 | > 100 | > 80.4 | – | – | – | – | – | – | – | – | – | – |
| CC(=O)Oc1ccc(/C=C/C(=O)O[C@H]2CCCC[C@@H]2OC(=O)/C=C/c2ccc(OC(C)=O)c(OC(C)=O)c2)cc1OC(C)=O | 27 | 20.6 | 15.1 | 60.2 | 15.4 | 32.6 | 31.9 | 37.1 | > 100 | 58.3 | – | – | – | – | – | – | – | – | – | – |
| COc1ccc2cc(C(=O)NCCCNC(=O)c3ccc4cc(OC)ccc4c3)ccc2c1 | > 100 | > 100 | > 100 | > 100 | > 100 | > 100 | > 100 | > 100 | > 100 | 50.5 | – | – | – | – | – | – | – | – | – | – |
| O=C1C(NCCN2CCOCC2)=C(Cl)C(=O)c2ncccc21 | 2.73 | 2.33 | 1.1 | 2.61 | 0.928 | 1.94 | 0.377 | 1.9 | 3.36 | 2.35 | – | – | – | – | – | – | – | – | – | – |
| CCOC(=O)Cn1c(=O)c2cc(-c3ccccc3)cc3c(Cl)nc4c(OC)c(OC)cc1c4c32 | 36.2 | 43.8 | > 59.9 | > 92.8 | 26.4 | 34.5 | 46.8 | 22 | > 100 | 49.6 | – | – | – | – | – | – | – | – | – | – |
| Oc1ccc(O)c(CNc2ccccc2)c1 | 32.4 | 27 | 33.9 | 42.1 | 28.1 | 67.7 | 3.14 | 31.9 | > 100 | > 100 | – | – | – | – | – | – | – | – | – | – |
| NC1(C(=O)O)CCCC1 | > 625 | > 625 | > 625 | > 625 | > 625 | > 625 | > 625 | > 625 | > 625 | > 625 | – | – | – | – | – | – | – | – | – | – |
| C[C@]1(O)O[C@@H]2OCC[C@@H]2C2=C1C(=O)c1ccccc1C2=O | 31.6 | 31.8 | 24.8 | 29.8 | 25.2 | 40.6 | 20.9 | 29.5 | 35.2 | 74 | – | – | – | – | – | – | – | – | – | – |
| CC(=O)O[C@H]1C[C@H]2C(=S)Nc3ccccc3C(=S)N2C1 | > 100 | > 100 | > 100 | > 100 | > 100 | > 100 | > 100 | > 100 | > 100 | > 100 | – | – | – | – | – | – | – | – | – | – |
| C=C1C(=O)O[C@@H]2[C@H](O)[C@@H](C)[C@@H]3C=CC(=O)[C@@]3(C)[C@H](OC(=O)C=C(C)C)[C@H]12 | 2.88 | 7.23 | 3.78 | 3.78 | 2.25 | 3.23 | 0.975 | 1.25 | 10 | 7.86 | – | – | – | – | – | – | – | – | – | – |
| COC(=O)[C@H](Cc1ccccc1)NP(=O)(O)OCC1C=CC(n2cc(C)c(=O)[nH]c2=O)O1 (stereo not given in full) | > 100 | > 100 | > 100 | > 100 | > 100 | > 100 | > 100 | > 100 | > 100 | > 100 | – | – | – | – | – | – | – | – | – | – |

| SMILES | TGI [1] [µM] | TGI [2] [µM] | TGI [3] [µM] | TGI [4] [µM] | TGI [5] [µM] | TGI [6] [µM] | TGI [7] [µM] | TGI [8] [µM] | TGI [9] [µM] | TGI [10] [µM] | GI50 [1] [µM] | GI50 [2] [µM] | GI50 [3] [µM] | GI50 [4] [µM] | GI50 [5] [µM] | GI50 [6] [µM] | GI50 [7] [µM] | GI50 [8] [µM] | GI50 [9] [µM] | GI50 [10] [µM] |
| --- | --- | --- | --- | --- | --- | --- | --- | --- | --- | --- | --- | --- | --- | --- | --- | --- | --- | --- | --- | --- |
| NC(=O)c1nnsc1NC=O | > 100 | > 100 | > 100 | > 100 | > 100 | > 100 | > 100 | > 100 | > 100 | > 100 | – | – | – | – | – | – | – | – | – | – |
| O=c1cc(N=Nc2ccc(Cl)cc2)[nH]c(=O)[nH]1 | 14.1 | 10.6 | 21.4 | 10.6 | 3.45 | 9.1 | 12 | 8.71 | 18.8 | 22.1 | – | – | – | – | – | – | – | – | – | – |
| O=C1c2ccccc2C(=O)c2c(O)ccc(O)c21 | > 100 | > 100 | > 100 | > 100 | > 100 | > 100 | > 100 | > 100 | > 100 | > 100 | – | – | – | – | – | – | – | – | – | – |
| O=[N+]([O-])c1c2nc3n(c2cc2c1nc1n2CCC1)CCC3 | > 100 | > 100 | > 100 | > 100 | > 100 | > 100 | > 100 | > 100 | > 100 | > 100 | – | – | – | – | – | – | – | – | – | – |
| CC12CCC(C(Nc3ccccn3)C1=O)C2(C)C (stereo not given) | > 100 | > 100 | > 100 | > 100 | > 100 | > 100 | > 100 | > 100 | > 100 | > 100 | – | – | – | – | – | – | – | – | – | – |
| CC1CCc2sc3[nH]c(=S)n(-c4ccccc4)c(=O)c3c2C1 (stereo not given) | > 100 | > 100 | > 100 | > 100 | > 100 | 67.8 | > 100 | > 100 | > 100 | 91 | – | – | – | – | – | – | – | – | – | – |
| COC(=O)c1cc(C(=CCC[C@H]2CC[C@@]3(C)C(CCC4C3CC[C@@]3(C)C4CC[C@@H]3C(C)CCCC(C)C)C2)c2cc(Cl)c(OC(=O)c3ccccc3)c(C(=O)OC)c2)cc(Cl)c1OC(=O)c1ccccc1 (stereo not given in full) | > 10 | > 10 | > 10 | > 10 | > 10 | > 10 | > 10 | > 10 | > 10 | > 10 | – | – | – | – | – | – | – | – | – | – |
| CS(=O)(=O)OCCCOS(C)(=O)=O | > 100 | > 100 | > 100 | > 100 | > 100 | > 100 | > 100 | > 100 | > 100 | > 100 | – | – | – | – | – | – | – | – | – | – |
| COc1ccccc1NC(=O)O/N=C(/Cl)C(C)C | 28.8 | 32.8 | 24.1 | 39.3 | 6.75 | 30.1 | 4.71 | 7.37 | 34.4 | 27.1 | – | – | – | – | – | – | – | – | – | – |
| COc1cc(C2c3cc4c(cc3[C@@H](Nc3cccc([N+](=O)[O-])c3)C3COC(=O)[C@H]23)OCO4)cc(OC)c1O (stereo not given in full) | 4.65 | > 29 | 7.87 | 16.9 | 19.6 | 6.41 | 32.1 | 20.1 | 4.38 | > 22.7 | – | – | – | – | – | – | – | – | – | – |
| CC1(C)CCC(=O)NC1CC(=O)CC1NC(=O)CCC1(C)C (stereo not given) | > 100 | > 100 | > 100 | > 100 | > 100 | > 100 | > 100 | > 100 | > 100 | > 100 | – | – | – | – | – | – | – | – | – | – |
| CCCCCCCCCCCCCCCCCCOCC(COP(=O)([O-])OCC[N+](C)(C)C)OC (stereo not given) | 61.6 | 52.7 | 62.9 | 10.4 | 45 | 9.93 | 45.7 | 46.8 | 49.3 | 37.2 | – | – | – | – | – | – | – | – | – | – |
| Cc1nc2ccccc2n1Cc1nnc(N)o1 | > 100 | > 100 | > 100 | > 100 | > 100 | > 100 | > 100 | > 100 | > 100 | > 100 | – | – | – | – | – | – | – | – | – | – |
| Cc1ccc(S(=O)(=O)N2CCNCCN(S(=O)(=O)c3ccc(C)cc3)CCN(S(=O)(=O)c3ccc(C)cc3)CC2)cc1 | > 100 | > 100 | > 100 | > 100 | > 100 | > 100 | > 100 | > 100 | > 100 | > 100 | – | – | – | – | – | – | – | – | – | – |
| Cc1nnc(-n2c(O)cc(=O)n(-c3ccccc3)c2=S)nc1/C=C/c1ccc(N(C)C)cc1 | 69.4 | 19.9 | 21.9 | 21 | 17.5 | 22.7 | > 100 | 8.38 | > 59 | 21.1 | – | – | – | – | – | – | – | – | – | – |
| c1ccc2c(c1)CC1COc3ccccc3C1O2 (stereo not given) | > 100 | > 100 | 37.9 | > 100 | > 100 | > 100 | > 100 | > 100 | > 100 | > 100 | – | – | – | – | – | – | – | – | – | – |
| O=C1ON=C2C3CC4CC12CC1(C3)C(=O)ON=C41 | > 100 | > 100 | > 100 | > 100 | > 100 | > 100 | > 100 | > 100 | > 100 | > 100 | – | – | – | – | – | – | – | – | – | – |
